{"source": "patent US20150105409A1", "about": "“HDAC INHIBITORS, ALONE OR IN COMBINATION WITH BTK INHIBITORS, FOR TREATING NONHODGKIN'S LYMPHOMA” (Acetylon Pharmaceticals, Inc., priority 2013, published 2015)", "type_in_all_cases": "cell-based, human", "key": {"Mino cells [1]": {"tested_on": "Mino cells", "assay": "Viability of MCL cells after inhibition of HDAC6"}, "Z138 cells [2]": {"tested_on": "Z138 cells", "assay": "Viability of MCL cells after inhibition of HDAC6"}, "Mino cells [3]": {"tested_on": "Mino cells", "assay": "Apoptosis by 7-AAD/Annexin V flow cytometry", "conditions": "48 hours, Compound A 3 or 12.5 μM, ibrutinib 10 or 30 μM, alone or combined (FIGS. 2-3)", "from_the_text": "(§1) Annexin/PI flow cytometric analysis was used to determine percentage of apoptotic cells. […]"}, "Z138 cells [4]": {"tested_on": "Z138 cells", "assay": "Apoptosis by 7-AAD/Annexin V flow cytometry", "conditions": "Z138, 48 hours; Compound A 3 or 12.5 μM, ibrutinib 10 or 30 μM, alone or combined (FIGS. 2-3)", "from_the_text": "as §1"}, "Mino cells [5]": {"tested_on": "Mino cells", "assay": "Cell cycle analysis by propidium iodide flow cytometry", "conditions": "48 hours, Compound A 13 μM, ibrutinib 10 μM, alone or combined (FIG. 5)", "description": "Cells were fixed and stained with propidium iodide (PI) and were analyzed by flow cytometry."}, "Z138 MCL cells": {"tested_on": "Z138 MCL cells", "assay": "CellTiter-Blue cell viability, combination (CI analysis)", "conditions": "Z138, 72 hours, single agent", "from_the_text": "Cell viability was next assessed using the CellTiter-Blue reagent (Promega). The results of these experiments are shown in FIG. 8 and in the Table below."}, "Mino MCL cells": {"tested_on": "Mino MCL cells", "assay": "CellTiter-Blue cell viability, combination (CI analysis)", "conditions": "72 hours, single agent", "from_the_text": "Cell viability was next assessed using the CellTiter-Blue reagent (Promega)."}, "[6]": {"conditions": "at Fa of combination dose 1.3E−6/3.1E−6"}, "[7]": {"conditions": "at Fa of combination dose 2.5E−6/6.2E−6"}, "[8]": {"conditions": "at Fa of combination dose 5.0E−6/12.5E−6"}, "[9]": {"conditions": "at Fa of combination dose 10.0E−6/25.0E−6"}, "[10]": {"conditions": "at Fa of combination dose 20.0E−6/50.0E−6"}, "[11]": {"conditions": "at Fa of combination dose 78.1E−9/195.3E−9"}, "[12]": {"conditions": "at Fa of combination dose 156.3E−9/390.6E−9"}, "[13]": {"conditions": "at Fa of combination dose 312.5E−9/781.2E−9"}, "[14]": {"conditions": "at Fa of combination dose 625.0E−9/1.6E−6"}}, "data": [{"smiles": "O=C(CCCCCCNC(=O)c1cnc(N(c2ccccc2)c2ccccc2)nc1)NO", "note": "[Compound A, 2-(diphenylamino)-N-(7-(hydroxyamino)-7-oxoheptyl)pyrimidine-5-carboxamide]", "values": [{"measurement": "cell viability", "setting": "Mino cells [1]", "result": "decreased viability"}, {"measurement": "cell viability", "setting": "Z138 cells [2]", "result": "decreased viability"}, {"measurement": "induction of apoptosis", "setting": "Mino cells [3]", "result": "induction of apoptosis"}, {"measurement": "induction of apoptosis", "setting": "Z138 cells [4]", "result": "induction of apoptosis"}, {"measurement": "cell cycle distribution", "setting": "Mino cells [5]", "result": "little effect on cell cycle distribution"}, {"measurement": "Dm (Cmpd A)", "setting": "Z138 MCL cells; [6]", "result": "1.7E−6"}, {"measurement": "Dm (Cmpd A)", "setting": "Z138 MCL cells; [7]", "result": "3.4E−6"}, {"measurement": "Dm (Cmpd A)", "setting": "Z138 MCL cells; [8]", "result": "6.8E−6"}, {"measurement": "Dm (Cmpd A)", "setting": "Z138 MCL cells; [9]", "result": "13.7E−6"}, {"measurement": "Dm (Cmpd A)", "setting": "Z138 MCL cells; [10]", "result": "27.7E−6"}, {"measurement": "Dm (Cmpd A)", "setting": "Z138 MCL cells; [11]", "result": "100.1E−9"}, {"measurement": "Dm (Cmpd A)", "setting": "Z138 MCL cells; [12]", "result": "202.2E−9"}, {"measurement": "Dm (Cmpd A)", "setting": "Z138 MCL cells; [13]", "result": "408.3E−9"}, {"measurement": "Dm (Cmpd A)", "setting": "Z138 MCL cells; [14]", "result": "824.5E−9"}, {"measurement": "Dm (Cmpd A)", "setting": "Mino MCL cells; [6]", "result": "1.6E−6"}, {"measurement": "Dm (Cmpd A)", "setting": "Mino MCL cells; [7]", "result": "13.1E−6"}, {"measurement": "Dm (Cmpd A)", "setting": "Mino MCL cells; [8]", "result": "108.1E−6"}, {"measurement": "Dm (Cmpd A)", "setting": "Mino MCL cells; [9]", "result": "894.0E−6"}, {"measurement": "Dm (Cmpd A)", "setting": "Mino MCL cells; [10]", "result": "7.4E−3"}, {"measurement": "Dm (Cmpd A)", "setting": "Mino MCL cells; [11]", "result": "338.3E−12"}, {"measurement": "Dm (Cmpd A)", "setting": "Mino MCL cells; [12]", "result": "2.8E−9"}, {"measurement": "Dm (Cmpd A)", "setting": "Mino MCL cells; [13]", "result": "23.1E−9"}, {"measurement": "Dm (Cmpd A)", "setting": "Mino MCL cells; [14]", "result": "191.2E−9"}]}, {"smiles": "C=CC(=O)N1CCC[C@@H](n2nc(-c3ccc(Oc4ccccc4)cc3)c3c(N)ncnc32)C1", "note": "[ibrutinib, reference compound]", "values": [{"measurement": "induction of apoptosis", "setting": "Mino cells [3]", "result": "induction of apoptosis"}, {"measurement": "induction of apoptosis", "setting": "Z138 cells [4]", "result": "induction of apoptosis"}, {"measurement": "cell cycle distribution", "setting": "Mino cells [5]", "result": "little effect on cell cycle distribution"}, {"measurement": "Dm (PCI-32765)", "setting": "Z138 MCL cells; [6]", "result": "56.7E−6"}, {"measurement": "Dm (PCI-32765)", "setting": "Z138 MCL cells; [7]", "result": "146.1E−6"}, {"measurement": "Dm (PCI-32765)", "setting": "Z138 MCL cells; [8]", "result": "376.3E−6"}, {"measurement": "Dm (PCI-32765)", "setting": "Z138 MCL cells; [9]", "result": "969.0E−6"}, {"measurement": "Dm (PCI-32765)", "setting": "Z138 MCL cells; [10]", "result": "2.5E−3"}, {"measurement": "Dm (PCI-32765)", "setting": "Z138 MCL cells; [11]", "result": "1.3E−6"}, {"measurement": "Dm (PCI-32765)", "setting": "Z138 MCL cells; [12]", "result": "3.3E−6"}, {"measurement": "Dm (PCI-32765)", "setting": "Z138 MCL cells; [13]", "result": "8.6E−6"}, {"measurement": "Dm (PCI-32765)", "setting": "Z138 MCL cells; [14]", "result": "22.0E−6"}, {"measurement": "Dm (PCI-32765)", "setting": "Mino MCL cells; [6]", "result": "5.1E−6"}, {"measurement": "Dm (PCI-32765)", "setting": "Mino MCL cells; [7]", "result": "10.2E−6"}, {"measurement": "Dm (PCI-32765)", "setting": "Mino MCL cells; [8]", "result": "20.5E−6"}, {"measurement": "Dm (PCI-32765)", "setting": "Mino MCL cells; [10]", "result": "83.0E−6"}, {"measurement": "Dm (PCI-32765)", "setting": "Mino MCL cells; [11]", "result": "308.7E−9"}, {"measurement": "Dm (PCI-32765)", "setting": "Mino MCL cells; [12]", "result": "621.3E−9"}, {"measurement": "Dm (PCI-32765)", "setting": "Mino MCL cells; [13]", "result": "1.3E−6"}, {"measurement": "Dm (PCI-32765)", "setting": "Mino MCL cells; [14]", "result": "2.5E−6"}]}]}
